This passage reports Ki results from patent publication US12370182B2, “Bicyclic derivatives as GABAA A5 receptor modulators” (RICHTER GEDEON NYRT., priority 2018, dated 2025).

As a reminder, the Ki is the equilibrium dissociation constant of an inhibitor or competing ligand from its target.

The target of this experiment is human recombinant GABAA α5β3γ2 receptor (Homo sapiens (Human), UniProt P18507+P31644). The experiment can be described thus: Binding assay, [3H]Ro151788 displacement on membranes of HEK cells. As to conditions: 0.5 nM [3H]Ro151788, 60 minutes at 4° C., Cheng-Prusoff; read-out: hGABAA α5 Ki. How it is done: The GABAA α5β3γ2 protein used for the receptor binding assay was derived from membranes produced from HEK cells (Millipore CYL3073) expressing the human recombinant GABAA α5β3γ2 receptor. Cells were stored and cultured in-house according to the instructions provided by the vendor (Millipor). Cell pellet was homogenized in 10 times modified Krebs Henseleit buffer (membrane preparation buffer): 20 mM Tris, 120 mM NaCl, 100 mM KCl, 25 mM CaCl2) and 25 mM MgCl2 pH=7.4 at 4° C. using Ultra Turrax (Janke&Kunkel) maximal speed for 15 seconds. The homogenate was centrifuged at 40,000 g for 30 minutes at 4° C. Supernatant was discarded and the resulting pellet was washed in membrane preparation buffer. Pellet was resuspended in membrane preparation buffer and aliquots of 1.4 mL ampulles were stored at −70° C. until use.
Receptor binding assays were performed in 96-well format in deep-well plates. For each 96-well plate one ampulle of membrane homogenate was thawed and diluted in binding buffer (50 mM Tris pH=7.4, 100 mM KCl) and 200 μL was dispensed into each well. Radioligand [^3H]Ro151788 (Perkin Elmer: NET757250UC) was prepared in binding buffer and added to each well in 50 μL volume to give final concentration of 0.5 nM. Test compounds in suitable concentration(s) were added in additional 50 μL. The final assay volume was 300 μL. Incubation was carried out for 60 minutes at 4° C. For non-specific binding 10 μM unlabeled diazepam was used. After incubation samples were filtered over UniFilter® GF/B™ using Filtermate Harvester (Perkin Elmer) and washed with 5×1 mL binding buffer. The plate was dried at 40° C. for an hour and 40 μL Microscint (Perkin Elmer) scintillation cocktail was added to each well. The plate was read in Microbeta (Perkin Elmer).
The specific radioligand binding (SB) was defined as the difference between total binding (Tot) and the non-specific binding (NSB). Results are expressed as a percent inhibition of specific binding obtained in the presence of compound of interest.
For IC50 and Ki determination a minimum of six drug concentrations in triplicate were used. […] Ki values (i.e. inhibition constants) were calculated using the Cheng-Prusoff equation Ki=IC50/[1+(L/KD)], where [L] is the radioligand concentration and KD the affinity of the labelled ligand for receptor. KD was determined from the Saturation analyses.

human recombinant GABAA α5β3γ2 receptor, sequence (P31644 32-462): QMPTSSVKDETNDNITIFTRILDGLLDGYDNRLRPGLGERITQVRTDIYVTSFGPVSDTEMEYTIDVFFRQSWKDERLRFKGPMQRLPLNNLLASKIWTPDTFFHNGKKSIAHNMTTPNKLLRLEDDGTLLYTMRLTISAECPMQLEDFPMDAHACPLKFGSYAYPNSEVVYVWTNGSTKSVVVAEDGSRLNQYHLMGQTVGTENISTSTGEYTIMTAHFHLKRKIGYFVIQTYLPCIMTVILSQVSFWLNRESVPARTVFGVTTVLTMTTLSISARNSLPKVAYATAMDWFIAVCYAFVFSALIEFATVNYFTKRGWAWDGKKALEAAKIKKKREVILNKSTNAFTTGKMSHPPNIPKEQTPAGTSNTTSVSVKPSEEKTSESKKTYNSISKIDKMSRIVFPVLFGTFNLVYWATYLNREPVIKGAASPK
human recombinant GABAA α5β3γ2 receptor, sequence (P28472 26-473 partner): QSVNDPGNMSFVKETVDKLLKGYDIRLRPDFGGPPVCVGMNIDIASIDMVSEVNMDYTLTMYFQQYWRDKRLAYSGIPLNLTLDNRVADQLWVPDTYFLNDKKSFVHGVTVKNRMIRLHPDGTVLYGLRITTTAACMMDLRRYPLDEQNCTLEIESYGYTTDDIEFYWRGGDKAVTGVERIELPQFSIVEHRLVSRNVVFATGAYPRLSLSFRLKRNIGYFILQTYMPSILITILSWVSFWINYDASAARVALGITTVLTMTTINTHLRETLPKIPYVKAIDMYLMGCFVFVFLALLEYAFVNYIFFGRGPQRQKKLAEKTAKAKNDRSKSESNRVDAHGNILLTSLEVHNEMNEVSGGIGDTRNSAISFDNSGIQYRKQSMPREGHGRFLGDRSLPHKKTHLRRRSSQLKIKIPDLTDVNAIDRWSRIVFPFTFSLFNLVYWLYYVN
human recombinant GABAA α5β3γ2 receptor, sequence (P18507 40-475): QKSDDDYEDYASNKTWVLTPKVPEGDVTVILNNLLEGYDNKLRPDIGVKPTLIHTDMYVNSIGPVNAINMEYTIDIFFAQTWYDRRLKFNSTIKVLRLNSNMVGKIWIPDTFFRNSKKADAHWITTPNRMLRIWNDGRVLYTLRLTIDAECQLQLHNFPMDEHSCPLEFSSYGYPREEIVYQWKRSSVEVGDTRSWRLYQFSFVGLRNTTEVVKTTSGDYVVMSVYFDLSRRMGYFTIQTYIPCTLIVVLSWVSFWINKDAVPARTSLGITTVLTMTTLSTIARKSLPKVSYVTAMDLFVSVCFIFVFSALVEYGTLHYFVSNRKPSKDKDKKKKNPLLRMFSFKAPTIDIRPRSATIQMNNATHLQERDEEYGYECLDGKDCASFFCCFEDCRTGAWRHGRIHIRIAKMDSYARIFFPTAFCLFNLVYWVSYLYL

As to `CC(=O)N1CCc2nc(OCc3c(-c4ccc(F)cc4)noc3C)ccc2C1` [Example 1, 1-[2-{[3-(4-fluorophenyl)-5-methyl-1,2-oxazol-4-yl]methoxy}-7,8-dihydro-1,6-naphthyridin-6(5H)-yl]ethanone], the Ki was 2.8 nM.

As to `Cc1onc(-c2ccc(F)cc2)c1COc1ccc2c(n1)CCN(C(=O)c1ccno1)C2` [Example 3, 2-{[3-(4-fluorophenyl)-5-methyl-1,2-oxazol-4-yl]methoxy}-6-(1,2-oxazole-5-carbonyl)-5,6,7,8-tetrahydro-1,6-naphthyridine], the inhibition constant Ki amounted to 5 nM.

Consider `Cc1onc(-c2ccc(F)cc2)c1COc1ccc2c(n1)CCN(C(=O)C1CCC1)C2` [Example 4, 6-cyclobutanecarbonyl-2-{[3-(4-fluorophenyl)-5-methyl-1,2-oxazol-4-yl]methoxy}-5,6,7,8-tetrahydro-1,6-naphthyridine], for which the Ki turned out to be 16 nM.

As for `Cc1onc(-c2ccc(F)cc2)c1COc1ccc2c(n1)CCN(C(=O)C1CC1)C2` [Example 5, 6-cyclopropanecarbonyl-2-{[3-(4-fluorophenyl)-5-methyl-1,2-oxazol-4-yl]methoxy}-5,6,7,8-tetrahydro-1,6-naphthyridine], the Ki came out at 7.8 nM.

Regarding `Cc1onc(-c2ccc(F)cc2)c1COc1ccc2c(n1)CCN(C(=O)C1CCCO1)C2` (stereo not shown) [Example 7, 2-{[3-(4-fluorophenyl)-5-methyl-1,2-oxazol-4-yl]methoxy}-6-(oxolane-2-carbonyl)-5,6,7,8-tetrahydro-1,6-naphthyridine], the Ki came to 6.8 nM.

For `Cc1cc(C(=O)N2CCc3nc(OCc4c(-c5ccc(F)cc5)noc4C)ccc3C2)no1` [Example 10, 2-{[3-(4-fluorophenyl)-5-methyl-1,2-oxazol-4-yl]methoxy}-6-(5-methyl-1,2-oxazole-3-carbonyl)-5,6,7,8-tetrahydro-1,6-naphthyridine], the Ki came out at 21 nM.

Regarding `Cc1onc(-c2ccc(F)cc2)c1COc1ccc2c(n1)CCN(C(=O)c1ccn(C)c1)C2` [Example 11, 2-{[3-(4-fluorophenyl)-5-methyl-1,2-oxazol-4-yl]methoxy}-6-(1-methyl-1H-pyrrole-3-carbonyl)-5,6,7,8-tetrahydro-1,6-naphthyridine], the Ki came out at 11 nM.

In the case of `Cc1onc(-c2ccc(F)cc2)c1COc1ccc2c(n1)CCN(C(=O)C(F)(F)F)C2` [Example 12, 2,2,2-trifluoro-1-(2-{[3-(4-fluorophenyl)-5-methyl-1,2-oxazol-4-yl]methoxy}-5,6,7,8-tetrahydro-1,6-naphthyridin-6-yl)ethan-1-one], the Ki was 14 nM.

With `Cc1nnn(-c2ccc(F)cc2)c1COc1ccc2c(n1)CCN(C(=O)C1CC1)C2` [Example 19, 6-cyclopropanecarbonyl-2-{[1-(4-fluorophenyl)-4-methyl-1H-1,2,3-triazol-5-yl]methoxy}-5,6,7,8-tetrahydro-1,6-naphthyridine], the Ki worked out at 49 nM.

For `Cc1nnn(-c2ccc(F)cc2)c1COc1ccc2c(n1)CCN(C(=O)c1ccno1)C2` [Example 20, 2-{[1-(4-fluorophenyl)-4-methyl-1H-1,2,3-triazol-5-yl]methoxy}-6-(1,2-oxazole-5-carbonyl)-5,6,7,8-tetrahydro-1,6-naphthyridine], the Ki turned out to be 24 nM.

Take `Cc1nnn(-c2ccc(F)cc2)c1COc1ccc2c(n1)CCN(C(=O)C1CC(=O)N(C)C1)C2` (stereo not shown) [Example 21, 4-(2-{[1-(4-fluorophenyl)-4-methyl-1H-1,2,3-triazol-5-yl]methoxy}-5,6,7,8-tetrahydro-1,6-naphthyridine-6-carbonyl)-1-methylpyrrolidin-2-one]: the Ki was 35 nM.

As for `Cc1nnn(-c2ccc(F)cc2)c1COc1ccc2c(n1)CCN(C(=O)C(C)C)C2` [Example 22, 1-(2-{[1-(4-fluorophenyl)-4-methyl-1H-1,2,3-triazol-5-yl]methoxy}-5,6,7,8-tetrahydro-1,6-naphthyridin-6-yl)-2-methylpropan-1-one], the Ki is 57 nM.

For `CCC(=O)N1CCc2nc(OCc3c(C)nnn3-c3ccc(F)cc3)ccc2C1` [Example 24, 1-(2-{[1-(4-fluorophenyl)-4-methyl-1H-1,2,3-triazol-5-yl]methoxy}-5,6,7,8-tetrahydro-1,6-naphthyridin-6-yl)propan-1-one], the Ki amounted to 46 nM.

Regarding `Cc1nnn(-c2ccc(F)cc2)c1COc1ccc2c(n1)CCN(C(=O)c1ccncc1)C2` [Example 25, 2-{[1-(4-fluorophenyl)-4-methyl-1H-1,2,3-triazol-5-yl]methoxy}-6-(pyridine-4-carbonyl)-5,6,7,8-tetrahydro-1,6-naphthyridine], the Ki came to 29 nM.

On to `Cc1nnn(-c2ccc(F)cc2)c1COc1ccc2c(n1)CCN(C(=O)c1ccccn1)C2` [Example 26, 2-{[1-(4-fluorophenyl)-4-methyl-1H-1,2,3-triazol-5-yl]methoxy}-6-(pyridine-2-carbonyl)-5,6,7,8-tetrahydro-1,6-naphthyridine], for which the Ki was 80 nM.

As for `Cc1nnn(-c2ccc(F)cc2)c1COc1ccc2c(n1)CCN(C(=O)c1cccc(Cl)c1)C2` [Example 27, 6-(3-chlorobenzoyl)-2-{[1-(4-fluorophenyl)-4-methyl-1H-1,2,3-triazol-5-yl]methoxy}-5,6,7,8-tetrahydro-1,6-naphthyridine], the Ki worked out at 137 nM.

For the compound `Cc1nnn(-c2ccc(F)cc2)c1COc1ccc2c(n1)CCN(C(=O)C1CCCOC1)C2` (stereo not shown) [Example 30, 2-{[1-(4-fluorophenyl)-4-methyl-1H-1,2,3-triazol-5-yl]methoxy}-6-(oxane-3-carbonyl)-5,6,7,8-tetrahydro-1,6-naphthyridine], the Ki is 82 nM.

With `Cc1nnn(-c2ccc(F)cc2)c1COc1ccc2c(n1)CCN(C(=O)C1(C)CCOC1)C2` (stereo not shown) [Example 31, 2-{[1-(4-fluorophenyl)-4-methyl-1H-1,2,3-triazol-5-yl]methoxy}-6-(3-methyloxolane-3-carbonyl)-5,6,7,8-tetrahydro-1,6-naphthyridine], the Ki turned out to be 44 nM.

With `Cc1nnn(-c2ccc(Cl)cc2)c1COc1ccc2c(n1)CCN(C(=O)C1CCOCC1)C2` [Example 32, 2-{[1-(4-chlorophenyl)-4-methyl-1H-1,2,3-triazol-5-yl]methoxy}-6-(oxane-4-carbonyl)-5,6,7,8-tetrahydro-1,6-naphthyridine], the Ki was determined as 22 nM.

For the compound `Cc1nnn(-c2ccc(Cl)cc2)c1COc1ccc2c(n1)CCN(C(=O)c1ccncc1)C2` [Example 33, 2-{[1-(4-chlorophenyl)-4-methyl-1H-1,2,3-triazol-5-yl]methoxy}-6-(pyridine-4-carbonyl)-5,6,7,8-tetrahydro-1,6-naphthyridine], the Ki came out at 14 nM.

In the case of `CC(=O)N1CCc2ccc(OCc3c(C)nnn3-c3ccc(F)cc3)nc2C1` [Example 34, 1-(2-{[1-(4-fluorophenyl)-4-methyl-1H-1,2,3-triazol-5-yl]methoxy}-5,6,7,8-tetrahydro-1,7-naphthyridin-7-yl)ethan-1-one], the Ki turned out to be 112 nM.

For `COC1CCC(C(=O)N2CCc3nc(OCc4c(C)nnn4-c4ccc(F)cc4)ccc3C2)CC1` (stereo not shown) [Example 35, 2-{[1-(4-fluorophenyl)-4-methyl-1H-1,2,3-triazol-5-yl]methoxy}-6-(4-methoxycyclohexanecarbonyl)-5,6,7,8-tetrahydro-1,6-naphthyridine], the Ki was 71 nM.
